These results are taken from article PMC7539012, “Hyperphosphorylated tau aggregation and cytotoxicity modulators screen identified prescription drugs linked to Alzheimer's disease and cognitive functions” (Scientific Reports, 2020).

SMILES strings stand for the structures. Where a name gives a salt, the structure may show the parent alone.

One assay relates to T1, 1N4R p-tau.
T1 construct: made in house; host or cells: E. coli (PIMAX system)
In words: p-tau aggregation modulator screen of 1280-compound library (ThS fluorescence net change over 16 h).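 Also: 30 µM compound with 6 µM p-tau over 16 h.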 In kind it is biochemical.
Conditions: not given
For the compound `CCc1c2c(nc3ccc(OC(=O)N4CCC(N5CCCCC5)CC4)cc13)-c1cc3c(c(=O)n1C2)COC(=O)[C@]3(O)CC.Cl.O.O.O` [Irinotecan hydrochloride trihydrate], the ThS net change was 281.

For the compound `O=[N+]([O-])O[C@@H]1CO[C@H]2[C@@H]1OC[C@@H]2O` [Isosorbide mononitrate], the ThS net change stood at 477.

Consider `CC[C@H](C)[C@H]1O[C@]2(CC[C@@H]1C)C[C@@H]1C[C@@H](C/C=C(\C)[C@@H](O[C@H]3C[C@H](OC)[C@@H](O[C@H]4C[C@H](OC)[C@@H](O)[C@H](C)O4)[C@H](C)O3)[C@@H](C)/C=C/C=C3\CO[C@@H]4[C@H](O)C(C)=C[C@@H](C(=O)O1)[C@]34O)O2` [Ivermectin], for which the ThS net change is recorded as 543.

`CCC(=O)O[C@@](Cc1ccccc1)(c1ccccc1)[C@@H](C)CN(C)C` [Levopropoxyphene napsylate]: the ThS net change was 434.

`CCN(CC)CC(=O)Nc1c(C)cccc1C` [Lidocaine hydrochloride] displayed a ThS net change of 271.

In turn, `COc1cccc(N(C)C(=S)Oc2ccc3c(c2)CCCC3)n1` [Liranaftate] came in with a ThS net change of 435.

Staying with this assay, now noted: 1280-compound library screen; ThS fluorescence net change over 16 h.
With `O=C(NCC(O)CO)c1c(I)c(C(=O)NCC(O)CO)c(I)c(N(CCO)C(=O)CO)c1I` (centres unmarked) [Ioversol], the ThS net change amounted to 409.

Take `CC(C)NNC(=O)c1ccncc1.O=P(O)(O)O` [Iproniazide phosphate]: the ThS net change came to 401.

`Cc1cc(C(=O)NNCc2ccccc2)no1` [Isocarboxazid] had a ThS net change of 400.

`CC(=O)OCC(=O)[C@@]1(O)CC[C@H]2[C@@H]3CCC4=CC(=O)C=C[C@]4(C)[C@@]3(F)[C@@H](O)C[C@@]21C` [Isoflupredone acetate] displayed a ThS net change of 388.

Regarding `NNC(=O)c1ccncc1` [Isoniazid], the ThS net change is 404.

Compound `CC(C)[N+](C)(CCC(C(N)=O)(c1ccccc1)c1ccccc1)C(C)C` [Isopropamide iodide] had a ThS net change of 395.

As for `Cc1c(NC(C)C)c(=O)n(-c2ccccc2)n1C.Cl` [Isopyrin hydrochloride], the ThS net change is given as 380.

In turn, `CC1=C(/C=C/C(C)=C/C=C/C(C)=C\C(=O)O)C(C)(C)CCC1` [Isotretinoin] returned a ThS net change of 389.

`COc1ccc(C(=O)NCc2ccc(OCCN(C)C)cc2)cc1OC` [Itopride] displayed a ThS net change of 405.

`O=C(c1ccccc1)c1ccc2n1CCC2C(=O)O` (centres unmarked) [Ketorolac tromethamine]: the ThS net change is 382.

Regarding `COc1c2occc2c(OC)c2c(=O)cc(C)oc12` [Khellin], the ThS net change was 389.

Turning to `Nc1nnc(-c2cccc(Cl)c2Cl)c(N)n1` [Lamotrigine], the ThS net change is reported as 389.

In the case of `CC[C@@H](C(N)=O)N1CCCC1=O` [Levetiracetam], the ThS net change came out at 407.

Regarding `CC(=O)NC[C@H]1CN(c2ccc(N3CCOCC3)c(F)c2)C(=O)O1` [Linezolid], the ThS net change stood at 405.

`N#Cc1cc(NC(=O)C(=O)O)c(Cl)c(NC(=O)C(=O)O)c1` [Lodoxamide] gave a ThS net change of 409.

Turning to `CC(Oc1c(Cl)cccc1Cl)C1=NCCN1` (centres unmarked) [Lofexidine], the ThS net change stood at 408.

The assay is the same for the next values; noted with them: 1280-compound library screen; […].
In turn, `O=[N+]([O-])O[C@H]1CO[C@H]2[C@@H]1OC[C@H]2O[N+](=O)[O-]` [Isosorbide dinitrate] showed a ThS net change of 405.

`CC(=O)O[C@H]1C[C@H](O[C@H]2[C@@H](O)C[C@H](O[C@H]3[C@@H](O)C[C@H](O[C@H]4CC[C@@]5(C)[C@H](CC[C@@H]6[C@@H]5C[C@@H](O)[C@]5(C)[C@@H](C7=CC(=O)OC7)CC[C@]65O)C4)O[C@@H]3C)O[C@@H]2C)O[C@H](C)[C@H]1O[C@@H]1O[C@H](CO)[C@@H](O)[C@H](O)[C@H]1O` [Lanatoside C] displayed a ThS net change of 411.

`C[C@H](N)[C@H](O)c1ccc(O)c(O)c1` [Levonordefrin] came in with a ThS net change of 387.

Staying with this assay, now noted: library screen, ThS fluorescence net change over 16 h with p-tau.
With `Nc1nc(N)nc(-c2cc(Cl)ccc2Cl)n1` [Irsogladine maleate], the ThS net change was 308.

The compound `Clc1ccc(C(Cn2ccnc2)OCc2c(Cl)cccc2Cl)c(Cl)c1` (centres unmarked) [Isoconazole] returned a ThS net change of 296.

`CCC(NC(C)C)C(O)c1ccc(O)c(O)c1.CS(=O)(=O)O` (centres unmarked) [Isoetharine mesylate salt] yielded a ThS net change of 313.

`N[C@@H](Cc1cc(I)c(Oc2ccc(O)c(I)c2)c(I)c1)C(=O)O` [Liothyronine]: the ThS net change is reported as 298.

Still in this assay, the particulars now being: p-tau aggregation modulator screen of 1280-compound library; ThS fluorescence net change.
`CC(=O)N(CC(O)CO)c1c(I)c(C(=O)NCC(O)CO)c(I)c(C(=O)NCC(O)CO)c1I` (centres unmarked) [Iohexol]: the ThS net change was found to be 345.

The compound `C[C@H](O)C(=O)Nc1c(I)c(C(=O)NC(CO)CO)c(I)c(C(=O)NC(CO)CO)c1I` [Iopamidol] came in with a ThS net change of 369.

With `COCC(=O)Nc1c(I)c(C(=O)NCC(O)CO)c(I)c(C(=O)N(C)CC(O)CO)c1I` (centres unmarked) [Iopromide], the ThS net change is recorded as 359.

Turning to `O=C1c2ccccc2S(=O)(=O)N1CCCCN1CCN(c2ncccn2)CC1` [Ipsapirone], the ThS net change came out at 374.

Take `Cc1cc(NC(=O)C2=C(O)c3ccccc3S(=O)(=O)N2C)no1` [Isoxicam]: the ThS net change is listed as 364.

`CC(COc1ccccc1)NC(C)C(O)c1ccc(O)cc1` (centres unmarked) [Isoxsuprine hydrochloride] gave a ThS net change of 347.

On to `COC(=O)C1=C(C)NC(C)=C(C(=O)OC(C)C)C1c1cccc2nonc12` (centres unmarked) [Isradipine], for which the ThS net change is reported as 372.

The compound `NC[C@H]1O[C@H](O[C@H]2[C@H](O)[C@@H](O[C@H]3O[C@H](CO)[C@@H](O)[C@H](N)[C@H]3O)[C@H](N)C[C@@H]2N)[C@H](O)[C@@H](O)[C@@H]1O` [Kanamycin A sulfate] had a ThS net change of 374.

`CC(=O)N1CCN(c2ccc(OCC3COC(Cn4ccnc4)(c4ccc(Cl)cc4Cl)O3)cc2)CC1` (centres unmarked) [Ketoconazole]: the ThS net change was found to be 350.

`CC(C(=O)O)c1cccc(C(=O)c2ccccc2)c1` (centres unmarked) [Ketoprofen]: the ThS net change was found to be 376.

`CN1CCC(=C2c3ccccc3CC(=O)c3sccc32)CC1` [Ketotifen fumarate] gave a ThS net change of 366.

Turning to `CC(CCc1ccccc1)NCC(O)c1ccc(O)c(C(N)=O)c1` (centres unmarked) [Labetalol hydrochloride], the ThS net change came to 353.

`Cc1oncc1C(=O)Nc1ccc(C(F)(F)F)cc1` [Leflunomide]: the ThS net change is listed as 344.

In turn, `c1ccc([C@H]2CN3CCSC3=N2)cc1` [Levamisole hydrochloride] came in with a ThS net change of 376.

Compound `Cc1cccc(C)c1NC(=O)CN1CCN(CCCC(c2ccc(F)cc2)c2ccc(F)cc2)CC1` [Lidoflazine] returned a ThS net change of 341.

`CCC[C@@H]1C[C@@H](C(=O)N[C@@H]([C@H]2O[C@H](SC)[C@H](O)[C@@H](O)[C@H]2O)[C@@H](C)O)N(C)C1` [Lincomycin hydrochloride] returned a ThS net change of 367.

In the case of `NCCCC[C@H](N[C@@H](CCc1ccccc1)C(=O)O)C(=O)N1CCC[C@H]1C(=O)O` [Lisinopril], the ThS net change came to 328.

In turn, `CN(CCCN1c2ccccc2CCc2ccccc21)CC(=O)c1ccc(Cl)cc1` [Lofepramine] yielded a ThS net change of 375.

The same assay, now with this note: p-tau aggregation modulator screen of 1280-compound library; […].
The compound `CC(=O)N(CC(O)CN(C(C)=O)c1c(I)c(C(=O)NCC(O)CO)c(I)c(C(=O)NCC(O)CO)c1I)c1c(I)c(C(=O)NCC(O)CO)c(I)c(C(=O)NCC(O)CO)c1I` (centres unmarked) [Iodixanol] displayed a ThS net change of 338.

Turning to `O.O=C(O)C(O)C(O)C(=O)O.O=C(c1ccc(F)cc1)C1CCN(CCn2c(=O)[nH]c3ccccc3c2=O)CC1` [Ketanserin tartrate hydrate], the ThS net change is on record as 354.

Consider `Cl.O[C@@H]1CCCC[C@H]1N1CCC(c2ccccc2)CC1` [L(-)-vesamicol hydrochloride], for which the ThS net change is 360.

The same assay, now with this note: p-tau aggregation modulator screen of the compound library, ThS fluorescence net change.
`O=C(CCCCC(=O)Nc1c(I)cc(I)c(C(=O)O)c1I)Nc1c(I)cc(I)c(C(=O)O)c1I` [Iodipamide] registered a ThS net change of 421.

The compound `CCC(Cc1c(I)cc(I)c(N)c1I)C(=O)O` (centres unmarked) [Iopanoic acid] yielded a ThS net change of 464.

Compound `CNC(=O)c1c(I)c(C(=O)NCC(=O)Nc2c(I)c(C(=O)O)c(I)c(C(=O)NCCO)c2I)c(I)c(N(C)C(C)=O)c1I` [Ioxaglic acid] yielded a ThS net change of 442.

`CC(C)Oc1ccc2c(=O)c(-c3ccccc3)coc2c1` [Ipriflavone] returned a ThS net change of 429.

Turning to `CCCCC1=NC2(CCCC2)C(=O)N1Cc1ccc(-c2ccccc2-c2nnn[nH]2)cc1` [Irbesartan], the ThS net change amounted to 454.

Take `CNC(C)CCC=C(C)C.CNC(C)CCC=C(C)C.O=C(O)C(O)C(O)C(O)C(O)C(=O)O` (centres unmarked) [Isometheptene mucate]: the ThS net change was 481.

Turning to `CCOC(=O)C1=C(C)NC(C)=C(C(=O)OCC)C1c1ccccc1/C=C/C(=O)OC(C)(C)C` [Lacidipine], the ThS net change worked out at 452.

The compound `Nc1ccn([C@@H]2CS[C@H](CO)O2)c(=O)n1` [Lamivudine] came in with a ThS net change of 424.

The compound `Cc1c(OCC(F)(F)F)ccnc1C[S+]([O-])c1nc2ccccc2[nH]1` (centres unmarked) [Lansoprazole] had a ThS net change of 510.

`CC(C)OC(=O)CCC/C=C\C[C@@H]1[C@@H](CC[C@@H](O)CCc2ccccc2)[C@H](O)C[C@@H]1O` [Latanoprost] displayed a ThS net change of 519.

The compound `N#Cc1ccc(C(c2ccc(C#N)cc2)n2cncn2)cc1` [Letrozole] had a ThS net change of 453.

`CC(C)(C)NC[C@H](O)c1ccc(O)c(CO)c1` [Levalbuterol hydrochloride]: the ThS net change worked out at 422.

Regarding `C[C@@H]1CN([C@H]2CC[C@](C#N)(c3ccc(F)cc3)CC2)CC[C@]1(C(=O)O)c1ccccc1` [Levocabastine hydrochloride], the ThS net change turned out to be 416.

Compound `N[C@@H](Cc1ccc(O)c(O)c1)C(=O)O` [Levodopa] returned a ThS net change of 444.

In turn, `C[C@H](CCC(=O)O)[C@H]1CC[C@H]2[C@@H]3CC[C@@H]4C[C@H](O)CC[C@]4(C)[C@H]3CC[C@]12C` [Lithocholic acid] displayed a ThS net change of 566.
